Assay results reported in patent publication US12357711B2, “PSMA binding dual mode radiotracer and therapeutic” (Technische Universität München, priority 2019, dated 2025).
Values joined by “and” are separate entries in the source; they are usually repeats but may differ in a detail not shown here. Equal entries are not always repeated. Where two headings read alike, the source gives them in different places. One block for each molecule: values may come before it.

Tests used:
[1] = target: T1, human serum albumin (Homo sapiens, UniProt P02768); conditions: reference substances for calibration of the HSA-column; cited from earlier work
T1 construct: purchased H13H-2433

[2] = target: T1, human serum albumin; assay: HSA binding on Chiralpak HSA column; format: in vitro ADME; conditions: for Log K HSA: reference substances for calibration of the HSA-column; for HSA Binding: Chiralpak HSA column (50 × 3 mm, 5 μm)
[3] = Wängler et al. 2010; cited from earlier work
[4] = test system: PSMA-positive LNCaP cells; assay: Internalization in LNCaP cells, normalized to ([125I]I-BA)KuE; format: cell-based; conditions: for individual internalization rates / internalization rate Mean: LNCaP cells, 1 hour, 37° C.; for individual internalization rates: c=0.5 nM, single measurements
Method: Data is corrected for non-specific binding ([…]) and expressed as mean±SD (n=3).
Subsequent to the removal of the culture medium, the cells were washed once with 500 μL DMEM-F12 (5% BSA) and left to equilibrate for at least 15 min at 37° C. in 200 μL DMEM-F12 (5% BSA). Each well was treated with either 25 μL of either DMEM-F12 (5% BSA) or a 100 μM PMPA solution for blockade. Next, 25 μL of the ^68Ga/^18F-labeled PSMA inhibitor (5.0 nM) was added and the cells incubated at 37° C. for 60 min. The experiment was terminated by placing the 24-well plate on ice for 3 min and consecutive removal of the medium. Each well was rinsed with 250 μL HBSS and the fractions from these first two steps combined, representing the amount of free radioligand. Removal of surface bound activity was accomplished by incubation of the cells with 250 μL of ice-cold PMPA (10 μM in PBS) solution for 5 min and rinsed again with another 250 μL of ice-cold PBS. The internalized activity was determined by incubation of the cells in 250 μL 1 M NaOH and the combination with the fraction of a subsequent wash step with 250 μL 1.0 M NaOH. Each experiment (control and blockade) was performed in triplicate. Free, surface bound and internalized activity was quantified in a γ-counter. […] Data were corrected for non-specific internalization and normalized to the specific-internalization observed for the radioiodinated reference compound.

[5] = target: T2, PSMA (Homo sapiens, UniProt Q04609); assay: Determination of IC50: PSMA affinity, competitive binding on LNCaP cells against ([125I]I-BA)KuE
T2 construct: endogenous in cells; host or cells: LNCaP cells
Method: Data are expressed as mean±SD (n=3, in 3 different experiments).
After removal of the culture medium, the cells were treated once with 500 μL of HBSS (Hank's balanced salt solution, Biochrom, Berlin, Germany, with addition of 1% bovine serum albumin (BSA)) and left 15 min on ice for equilibration in 200 μL HBSS (1% BSA). […] Quantification of bound and free radioligand was accomplished in a γ-counter.

[6] = test system: LNCaP tumor-bearing SCID mice; assay: Biodistribution at 1 h p.i.; format: in vivo; conditions: for Biodistribution tumor: LNCaP tumor
Method: FIG. 10: Biodistribution (in % ID/g) of ^18E-labeled rhPSMA tracers at 1 h p.i in LNCaP tumor-bearing SCID mice. Data are expressed as mean±SD (n=4 for rhPSMA7.1, n=5 for 7.2, n=4 for 7.3, n=5 for 7.4 and n=3 for 7-rac).

[7] = test system: LNCaP tumor-bearing SCID mice; assay: Biodistribution at 1 h p.i. with competition (co-injected PMPA); format: in vivo; conditions: co-injected with PMPA (8 mg/kg); for Biodistribution tumor: LNCaP tumor
Method: FIG. 11: Biodistribution [% ID/g] of ^18F-rhPSMAs co-injected with PMPA (8 mg/kg) at 1 h p.i in LNCaP tumor-bearing SCID mice. Data are expressed as mean±SD (n=3).

[8] = Octanol-water partition coefficient (n-octanol/PBS pH 7.4); format: physicochemical; conditions: for log P: octanol/PBS7.4, (n = 6)
Method: Approximately 1 MBq of the labeled tracer was dissolved in 1 mL of a 1:1 mixture (by volumes) of phosphate buffered saline (PBS, pH 7.4) and n-octanol in an Eppendorf tube. After vigorous mixing of the suspension for 3 minutes at room temperature, the vial was centrifuged at 15000 g for 3 minutes (Biofuge 15, Heraus Sepatech, Osterode, Germany) and 100 μL aliquots of both layers were measured in a gamma counter. The experiment was repeated at least six times.
Determianation of the IogP values was carried out in phosphate buffered saline (PBS, pH 7.4) and n-octanol (=logPoct/PBS).

[9] = LNCaP cells, [125I]IB-KuE c=0.2 nM, 1 h, 4° C., HBSS+1% BSA, single measurements, read-out: individual IC50 measurements
[10] = LNCaP cells, [125I]IB-KuE c=0.2 nM, 1 h, 4° C., mean of individual measurements, read-out: IC50 Mean

T2 sequence (Q04609 whole entry): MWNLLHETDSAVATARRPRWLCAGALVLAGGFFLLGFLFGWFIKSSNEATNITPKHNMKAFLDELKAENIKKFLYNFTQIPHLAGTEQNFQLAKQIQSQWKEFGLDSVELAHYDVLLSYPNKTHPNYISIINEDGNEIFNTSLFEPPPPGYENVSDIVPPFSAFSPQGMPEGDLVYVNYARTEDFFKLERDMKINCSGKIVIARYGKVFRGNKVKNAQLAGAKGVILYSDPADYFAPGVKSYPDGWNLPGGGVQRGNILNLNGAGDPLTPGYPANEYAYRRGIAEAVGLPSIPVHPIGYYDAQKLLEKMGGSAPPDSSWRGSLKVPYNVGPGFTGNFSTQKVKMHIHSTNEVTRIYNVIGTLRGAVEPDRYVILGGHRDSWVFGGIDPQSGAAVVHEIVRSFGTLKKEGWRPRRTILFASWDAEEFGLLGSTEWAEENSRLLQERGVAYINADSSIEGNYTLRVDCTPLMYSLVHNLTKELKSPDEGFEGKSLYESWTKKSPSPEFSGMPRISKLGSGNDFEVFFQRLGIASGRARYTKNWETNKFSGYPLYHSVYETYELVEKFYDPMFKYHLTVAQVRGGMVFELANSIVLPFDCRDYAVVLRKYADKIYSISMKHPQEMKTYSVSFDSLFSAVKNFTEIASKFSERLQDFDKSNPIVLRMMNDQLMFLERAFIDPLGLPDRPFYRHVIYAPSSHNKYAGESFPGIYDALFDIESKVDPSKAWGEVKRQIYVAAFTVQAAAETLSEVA
T1 sequence (P02768 25-609): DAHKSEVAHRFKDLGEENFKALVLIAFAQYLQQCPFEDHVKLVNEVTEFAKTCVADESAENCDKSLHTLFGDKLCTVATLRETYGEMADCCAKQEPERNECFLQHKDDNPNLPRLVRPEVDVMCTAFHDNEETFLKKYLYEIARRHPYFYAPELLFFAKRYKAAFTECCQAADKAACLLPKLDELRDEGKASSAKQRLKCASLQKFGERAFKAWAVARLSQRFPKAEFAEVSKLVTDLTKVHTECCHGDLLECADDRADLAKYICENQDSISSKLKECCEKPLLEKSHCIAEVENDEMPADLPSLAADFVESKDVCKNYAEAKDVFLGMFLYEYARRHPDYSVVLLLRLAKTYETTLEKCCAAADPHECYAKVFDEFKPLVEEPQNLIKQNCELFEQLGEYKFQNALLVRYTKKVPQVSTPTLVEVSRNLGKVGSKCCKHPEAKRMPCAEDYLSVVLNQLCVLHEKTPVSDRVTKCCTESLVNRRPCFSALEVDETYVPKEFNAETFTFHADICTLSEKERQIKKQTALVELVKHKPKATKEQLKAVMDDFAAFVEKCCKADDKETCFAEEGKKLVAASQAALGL

Molecule: Nc1ccccc1 [Aniline]
Lit. HSA % (literature value of human serum albumin binding) [1]: 14.06% | Log K HSA [2]: −0.79

Molecule: SIFA-Asn(AcNH-β-Glc)-Tyr^3-octreotate
log P(ow) [3]: 1.23

Molecule: O=C(O)c1ccccc1 [Benzoic Acid]
Lit. HSA % (literature value of human serum albumin binding) [1]: 34.27%

Molecule: [^19F][^natGa]L-Dap-S-DOTAGA-rhPSMA7 [rhPSMA7.4]
individual internalization rates [4]: 209.6 % of [^125I]IB-KuE and 202.6 % of [^125I]IB-KuE and 209.8 % of [^125I]IB-KuE | internalization rate Mean [4]: 207.33±4.06 % of [^125I]IB-KuE and 207.33 % of [^125I]IB-KuE | IC50 [5, 9]: 3.4 nM and 3.56 nM and 2.79 nM and 4.57 nM and 3.78 nM | IC50 [5, 10]: 3.62 nM | Biodistribution adrenals [6]: 3.57 ± 2.38 % ID/g | Biodistribution blood [6]: 1.15 ± 0.30 % ID/g | Biodistribution bone [6]: 0.62 ± 0.30 % ID/g | Biodistribution heart [6]: 0.71 ± 0.26 % ID/g | Biodistribution intestine [6]: 0.37 ± 0.09 % ID/g | Biodistribution kidneys [6]: 153 ± 80.3 % ID/g | Biodistribution liver [6]: 0.69 ± 0.20 % ID/g | Biodistribution lung [6]: 1.59 ± 0.61 % ID/g | Biodistribution muscle [6]: 0.31 ± 0.08 % ID/g | Biodistribution pancreas [6]: 0.50 ± 0.30 % ID/g | Biodistribution spleen [6]: 18.4 ± 9.77 % ID/g | Biodistribution stomach [6]: 0.25 ± 0.06 % ID/g | Biodistribution tumor [6]: 18.9 ± 3.27 % ID/g | HSA Binding [2]: 96.6% | Biodistribution adrenals [7]: 0.03 ± 0.04 % ID/g | Biodistribution blood [7]: 0.82 ± 0.17 % ID/g | Biodistribution bone [7]: 1.0 ± 0.8 % ID/g | Biodistribution heart [7]: 0.37 ± 0.05 % ID/g | Biodistribution intestine [7]: 0.36 ± 0.08 % ID/g | Biodistribution kidneys [7]: 7.2 ± 2.4 % ID/g | Biodistribution liver [7]: 0.48 ± 0.14 % ID/g | Biodistribution lung [7]: 0.74 ± 0.14 % ID/g | Biodistribution muscle [7]: 0.20 ± 0.05 % ID/g | Biodistribution pancreas [7]: 0.18 ± 0.09 % ID/g | Biodistribution spleen [7]: 0.28 ± 0.15 % ID/g | Biodistribution stomach [7]: 0.20 ± 0.07 % ID/g | Biodistribution tumor [7]: 0.99 ± 0.19 % ID/g

Molecule: CCCN(CCC)S(=O)(=O)c1ccc(C(=O)O)cc1 [Probenecid]
Lit. HSA % (literature value of human serum albumin binding) [1]: 95.00%

Log K HSA [2]: 1.69
Molecule: COc1ccc(Cl)cc1C(=O)NCCc1ccc(S(=O)(=O)NC(=O)NC2CCCCC2)cc1 [Glibenclamide]
Lit. HSA % (literature value of human serum albumin binding) [1]: 99.00%

Molecule: Oc1ccccc1 [Phenol]
Lit. HSA % (literature value of human serum albumin binding) [1]: 20.69% | Log K HSA [2]: −0.59

Molecule: PSMA-1007 [reference compound]
internalization of other selected PSMA inhibitors ([4]; identical assay, carried out in our lab (Robu et al. 2018)): 118 ± 4 % of [^125I]IB-KuE | IC50 ([5]; identical binding assay, carried out in our lab (Robu et al. 2018), read-out: IC50 of other selected PSMA inhibitors): 4.2 ± 0.5 nM | log P [8]: −1.6 | HSA Binding [2]: 97.8%

Molecule: SIFA-Asn(AcNH-β-Glc)-PEG-Tyr^3-octreotate
log P(ow) [3]: 0.96

Molecule: CC(C)(C)[Si](F)(c1ccc(C(=O)NC[C@H](NC(=O)CC[C@H](C(=O)O)N2CCN(CC(=O)[O-])CCN(CC(=O)[O-])CCN(CC(=O)[O-])CC2)C(=O)N[C@H](CCCCNC(=O)CCC(=O)NCCC[C@@H](NC(=O)CC[C@H](NC(=O)N[C@@H](CCC(=O)O)C(=O)O)C(=O)O)C(=O)O)C(=O)O)cc1)C(C)(C)C.[Ga+3] [rhPSMA7.2, [^19F][^natGa]L-Dap-R-DOTAGA-rhPSMA7]
individual internalization rates [4]: 192.3 % of [^125I]IB-KuE and 188.7 % of [^125I]IB-KuE and 182.7 % of [^125I]IB-KuE and 169.5 % of [^125I]IB-KuE and 205.3 % of [^125I]IB-KuE and 212.6 % of [^125I]IB-KuE | internalization rate Mean [4]: 191.83 % of [^125I]IB-KuE | IC50 [5, 9]: 2.64 nM and 2.76 nM and 3.94 nM and 5.8 nM and 4.31 nM and 4.32 nM and 3.17 nM and 2.97 nM and 3.36 nM | IC50 [5, 10]: 3.7 nM | log P [8]: −3.13 ± 0.22 | log P Mean ([8]; octanol/PBS7.4, mean of individual measurements): −3.13 | individual log P measurements ([8]; octanol/PBS7.4, single measurements): −3.03 and −2.96 and −2.94 and −2.89 and −3.02 and −3.06 and −2.99 and −3.14 and −3.40 and −3.50 and −3.45 and −3.53 and −3.48 and −3.00 and −3.01 | Biodistribution adrenals [6]: 1.3 ± 0.8 % ID/g | Biodistribution blood [6]: 0.56 ± 0.20 % ID/g | Biodistribution bone [6]: 0.31 ± 0.24 % ID/g | Biodistribution heart [6]: 0.32 ± 0.13 % ID/g | Biodistribution intestine [6]: 0.18 ± 0.07 % ID/g | Biodistribution kidneys [6]: 87.6 ± 28.8 % ID/g | Biodistribution liver [6]: 0.35 ± 0.08 % ID/g | Biodistribution lung [6]: 0.89 ± 0.38 % ID/g | Biodistribution muscle [6]: 0.13 ± 0.07 % ID/g | Biodistribution pancreas [6]: 0.21 ± 0.08 % ID/g | Biodistribution spleen [6]: 10.1 ± 6.3 % ID/g | Biodistribution stomach [6]: 0.19 ± 0.08 % ID/g | Biodistribution tumor [6]: 6.5 ± 2.3 % ID/g | HSA Binding [2]: 97.8% | Biodistribution adrenals [7]: 0.07 ± 0.10 % ID/g | Biodistribution blood [7]: 1.1 ± 0.31 % ID/g | Biodistribution bone [7]: 0.57 ± 0.39 % ID/g | Biodistribution heart [7]: 0.47 ± 0.09 % ID/g | Biodistribution intestine [7]: 0.33 ± 0.10 % ID/g | Biodistribution kidneys [7]: 10.9 ± 1.0 % ID/g | Biodistribution liver [7]: 0.46 ± 0.07 % ID/g | Biodistribution lung [7]: 1.1 ± 0.32 % ID/g | Biodistribution muscle [7]: 0.09 ± 0.03 % ID/g | Biodistribution pancreas [7]: 0.12 ± 0.05 % ID/g | Biodistribution spleen [7]: 0.26 ± 0.07 % ID/g | Biodistribution stomach [7]: 0.21 ± 0.06 % ID/g | Biodistribution tumor [7]: 1.0 ± 0.13 % ID/g

logP ([8]; pH 7.4): -3.4 | HSA Binding [2]: 14.3%
Molecule: O=C(O)CC[C@H](NC(=O)N[C@@H](CCCCNC(=O)c1ccc(F)nc1)C(=O)O)C(=O)O [DCFPyL, reference compound]
